# Test results taken from patent US20120136005A1, “E[…] THE TREATMENT OF ANXIETY” (MERZ PHARMA GmbH & CO. KGaA, priority 2009, published 2012).
# Legend:
# [1] = molecular target: T1, human serotonin 5-HT1a receptor (Homo sapiens, UniProt P08908); assay: GTPγS assay, recombinant CHO-K1 membranes; format: biochemical; details: human recombinant cell lines; FIG. 1
# T1 construct: expressed in transfected cells; host or cells: CHO-K1 (membranes)
# T1 sequence (P08908 1-422): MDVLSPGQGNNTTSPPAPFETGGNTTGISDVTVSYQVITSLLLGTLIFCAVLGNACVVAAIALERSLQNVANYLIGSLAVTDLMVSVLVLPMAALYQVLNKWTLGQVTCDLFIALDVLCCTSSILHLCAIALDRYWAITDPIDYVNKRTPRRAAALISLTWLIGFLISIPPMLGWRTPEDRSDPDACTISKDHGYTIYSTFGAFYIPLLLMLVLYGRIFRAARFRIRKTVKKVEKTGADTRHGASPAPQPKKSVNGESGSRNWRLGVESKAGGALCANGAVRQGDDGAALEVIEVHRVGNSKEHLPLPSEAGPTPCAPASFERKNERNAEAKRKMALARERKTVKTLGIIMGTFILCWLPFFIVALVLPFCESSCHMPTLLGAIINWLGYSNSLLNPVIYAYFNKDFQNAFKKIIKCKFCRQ
# Protocol: Eltoprazine was tested for activity on the human serotonin 5-HT1a and 5-HT1b receptors using a GTPγS assay. Recombinant membranes obtained from CHO-K1 cells expressing either the 5-HT1a or 5-HT1b receptors were mixed with GDP (volume:volume) and incubated for at least 15 min on ice. In parallel, GTPγ[35S] was mixed with the beads (volume:volume) just before starting the reaction. The following reagents were successively added in the wells of an Optiplate (Perkin Elmer): 50 μl of test compound, 20 μl of the membranes:GDP mix, 10 μl of assay buffer (for agonist testing) and 20 μl of the GTPγ[35S]:beads mix. The plates were covered with a top seal, shaken on an orbital shaker for 2 min, and then incubated for 1 h at room temperature. Then the plates were centrifuged for 10 min at 2000 rpm, incubated at room temperature 1 h and counted for 1 min/well with a PerkinElmer TopCount reader.
# Sprague-Dawley rats [2] = assay: Open field locomotor activity; format: in vivo
# Protocol: (§1) For contextual fear conditioning, open field, fear potentiated startle and elevate plus maze, experimentally naive adult male Sprague-Dawley rats (250-300 g; Janvier, France) were housed in groups of four per cage. Colony room temperature and humidity were maintained respectively at 20±1° C. and 60±3%. Food and water were available ad libitum and the animals were kept under an alternating 12 h/12 h day-night cycle (lights on at 07.00) for at least 6 days before the experiments were started. All experiments were conducted during the light period of the day-night cycle. For the Vogel test, male experimentally naive Wistar rats (180-220 g, State Breeding Farm “Rappolovo”, St. Petersburg, Russia; N=109) were used. Each animal was used only once.
# Eltoprazine hydrochloride was dissolved in sterile water. […]
# Locomotor activity was measured in four perspex boxes (ENV-515-16, 43.2 cm×43.2 cm×30 cm) placed in a noise-proof chamber equipped with ventilator and a source of white light (5.6 W) placed 55 cm above floor. […] 4 arrays of 16 infrared photo beams placed 3 cm above the floor measured horizontal activity. […] The output from the counters was integrated and analysed on-line by an PC computer. […]
# Total distance travelled during the 60 min was taken for statistical analysis. Data are analysed by one-way ANOVA followed by Dunnett's test.
# Sprague-Dawley rats [3] = assay: Fear potentiated startle; format: in vivo; details: acute treatment
# Protocol: as §1
# Eltoprazine hydrochloride was dissolved in sterile water. Administration of eltoprazine or vehicle (sterile water) was done s.c. (0.078 to 1.25 mg/kg) once, 60 minutes (30 min in the Vogel test) prior to start of the behavioural assay.
smiles,measurement,setting,value
"c1cc2c(c(N3CCNCC3)c1)OCCO2 [eltoprazine, 1-(2,3-dihydro-1,4-benzodioxin-5-yl)piperazine]",functional activity at 5-HT1a receptor,[1],partial agonistic action
same,total distance travelled in the open field,Sprague-Dawley rats [2]; 1.25 mg/kg s.c.,significantly increased
same,locomotor activity in the open field at anxiolytic doses,"Sprague-Dawley rats [2]; acute s.c., 60 min before the test, FIG. 5",not related to non-specific increase in locomotor activation
same,"effect in fear potentiated startle, first experiment",Sprague-Dawley rats [3],anxiolytic-like effect
same,"effect in fear potentiated startle, repetition study",Sprague-Dawley rats [3]; same doses,strong trend
